Measured values as given in patent US10308659B2, “Pyridine derivatives” (Hoffmann-La Roche Inc., priority 2013, dated 2019).

Columns and labels:
[1] = molecular target: human CB2 receptors (Homo sapiens (Human), UniProt P34972); experiment: cAMP assay, CHO cells expressing human CB2 receptors; type: cell-based; settings: functional cAMP assay, CHO cells expressing human CB2; read-out: EC50 CB2 human
Procedure, shortened: (§1)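 Transfected CHO cells were preincubated in Krebs Ringer bicarbonate buffer with 1 mM IBMX for 30 min at 30 °C, then exposed to compound for 30 min at 30 °C. cAMP was measured by time-resolved FRET (730/645 nm) against a standard curve spanning 10 μM to 0.13 nM. EC50 values derived from concentration–response data.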

[2] = molecular target: human CB1 receptors (Homo sapiens (Human), UniProt P21554); experiment: cAMP assay, CHO cells expressing human CB1 receptors; type: cell-based; settings: functional cAMP assay, CHO cells expressing human CB1; read-out: EC50 CB1 human
Sequence of human CB1 receptors (P21554 whole entry): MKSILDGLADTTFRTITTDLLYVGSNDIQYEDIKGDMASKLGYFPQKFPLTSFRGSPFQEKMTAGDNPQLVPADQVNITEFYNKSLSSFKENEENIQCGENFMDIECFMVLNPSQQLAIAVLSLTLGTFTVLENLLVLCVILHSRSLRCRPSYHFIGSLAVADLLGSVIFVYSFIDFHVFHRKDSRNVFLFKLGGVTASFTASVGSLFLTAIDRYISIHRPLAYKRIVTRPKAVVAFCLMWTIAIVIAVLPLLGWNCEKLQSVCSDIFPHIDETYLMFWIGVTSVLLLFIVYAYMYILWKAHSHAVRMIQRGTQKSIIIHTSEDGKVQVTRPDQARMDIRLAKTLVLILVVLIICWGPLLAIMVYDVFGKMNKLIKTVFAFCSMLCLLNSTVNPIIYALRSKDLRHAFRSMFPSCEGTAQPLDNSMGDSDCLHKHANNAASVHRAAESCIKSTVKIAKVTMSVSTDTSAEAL
Procedure, shortened: as §1

Sequence of human CB2 receptors (P34972 whole entry): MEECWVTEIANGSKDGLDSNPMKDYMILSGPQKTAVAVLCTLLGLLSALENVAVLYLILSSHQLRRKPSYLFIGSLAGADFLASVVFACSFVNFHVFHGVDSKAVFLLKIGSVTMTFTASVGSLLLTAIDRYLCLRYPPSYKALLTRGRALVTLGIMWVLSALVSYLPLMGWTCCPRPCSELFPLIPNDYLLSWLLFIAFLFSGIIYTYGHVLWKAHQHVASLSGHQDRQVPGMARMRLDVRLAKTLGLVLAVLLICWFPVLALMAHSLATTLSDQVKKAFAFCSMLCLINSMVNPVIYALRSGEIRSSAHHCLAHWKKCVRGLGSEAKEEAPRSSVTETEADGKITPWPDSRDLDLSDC

Compound | EC50 [1] | EC50 [2]
CN1CCCC(Oc2cc(-c3noc(C(C)(C)C)n3)ncc2C2CC2)C1 (stereo not shown) [Example 99, 5-tert-butyl-3-[5-cyclopropyl-4-(1-methylpiperidin-3-yl)oxypyridin-2-yl]-1,2,4-oxadiazole] | 317 nM | > 10000 nM
CC(C)(C)c1nc(-c2cc(Oc3ccc(F)cc3)c(C3CC3)cn2)no1 [Example 61, 5-tert-butyl-3-[5-cyclopropyl-4-(4-fluorophenoxy)pyridin-2-yl]-1,2,4-oxadiazole] | 6.2 nM | > 10000 nM
CC(C)(C)c1nnc(-c2cc(OC3CCOCC3)c(C3CC3)cn2)o1 [Example 98, 2-tert-butyl-5-[5-cyclopropyl-4-(oxan-4-yloxy)pyridin-2-yl]-1,3,4-oxadiazole] | 42 nM | > 10000 nM
CC1(c2nc(-c3cc(OCC4CC4)c(C4CC4)cn3)no2)CC1 [Example 24, 3-[5-cyclopropyl-4-(cyclopropylmethoxy)pyridin-2-yl]-5-(1-methylcyclopropyl)-1,2,4-oxadiazole] | 4.3 nM | 581 nM
COC(C)CCOc1cc(-c2noc(C(C)(C)C)n2)ncc1C1CC1 (stereo not shown) [Example 89, 5-tert-butyl-3-[5-cyclopropyl-4-(3-methoxybutoxy)pyridin-2-yl]-1,2,4-oxadiazole] | 16.2 nM | > 10000 nM
CC(CN1CCCCC1)Oc1cc(-c2noc(C(C)(C)C)n2)ncc1C1CC1 (stereo not shown) [Example 96, 5-tert-butyl-3-[5-cyclopropyl-4-(1-piperidin-1-ylpropan-2-yloxy)pyridin-2-yl]-1,2,4-oxadiazole] | 75.9 nM | 1010 nM
CC(C)c1nc(-c2cc(OCC(F)(F)F)c(N3CC(F)(F)C3)cn2)no1 [Example 45, 3-[5-(3,3-difluoroazetidin-1-yl)-4-(2,2,2-trifluoroethoxy)pyridin-2-yl]-5-propan-2-yl-1,2,4-oxadiazole] | 77.8 nM | > 10000 nM
Cc1nc(COc2cc(-c3noc(C(C)(C)C)n3)ncc2C2CC2)c(C)o1 [Example 106, 5-tert-butyl-3-[5-cyclopropyl-4-[(2,5-dimethyl-1,3-oxazol-4-yl)methoxy]pyridin-2-yl]-1,2,4-oxadiazole] | 128 nM | > 10000 nM
FC(F)(F)c1nc(-c2cc(OCC3CC3)c(C3CC3)cn2)no1 [Example 19, 3-[5-cyclopropyl-4-(cyclopropylmethoxy)pyridin-2-yl]-5-(trifluoromethyl)-1,2,4-oxadiazole] | 13.7 nM | > 10000 nM
CC(C)(C)c1nc(-c2cc(Oc3cccc(S(C)(=O)=O)c3)c(C3CC3)cn2)no1 [Example 108, 5-tert-butyl-3-[5-cyclopropyl-4-(3-methylsulfonylphenoxy)pyridin-2-yl]-1,2,4-oxadiazole] | 69.8 nM | > 10000 nM
Cc1cc(COc2cc(-c3noc(C(C)(C)C)n3)ncc2C2CC2)no1 [Example 107, 5-tert-butyl-3-[5-cyclopropyl-4-[(5-methyl-1,2-oxazol-3-yl)methoxy]pyridin-2-yl]-1,2,4-oxadiazole] | 95.8 nM | > 10000 nM
CC(C)(C)c1nc(-c2cc(OC3CCOC3)c(C3CC3)cn2)no1 (stereo not shown) [Example 62, 5-tert-butyl-3-[5-cyclopropyl-4-(oxolan-3-yloxy)pyridin-2-yl]-1,2,4-oxadiazole] | 17.8 nM | > 10000 nM
CC(C)(C)c1nc(-c2cc(OCCN3CCOCC3)c(C3CC3)cn2)no1 [Example 103, 4-[2-[2-(5-tert-butyl-1,2,4-oxadiazol-3-yl)-5-cyclopropylpyridin-4-yl]oxyethyl]morpholine] | 28.9 nM | > 10000 nM
c1c(-c2nc(C3CC3)no2)ncc(C2CC2)c1OCC1CC1 [Example 3, 3-cyclopropyl-5-[5-cyclopropyl-4-(cyclopropylmethoxy)pyridin-2-yl]-1,2,4-oxadiazole] | 1.2 nM | > 10000 nM
OCc1nc(-c2cc(OCC3CC3)c(C3CC3)cn2)no1 [Example 18, [3-[5-cyclopropyl-4-(cyclopropylmethoxy)pyridin-2-yl]-1,2,4-oxadiazol-5-yl]methanol] | 110 nM | > 10000 nM
CC(C)(C)c1noc(-c2cc(OC3CCOCC3)c(C3CC3)cn2)n1 [Example 121, 3-tert-butyl-5-(5-cyclopropyl-4-(tetrahydro-2H-pyran-4-yloxy)pyridin-2-yl)-1,2,4-oxadiazole] | 1 nM | > 10000 nM
CC(C)(C)c1nc(-c2cc(OCC3COC3)c(C3CC3)cn2)no1 [Example 90, 5-tert-butyl-3-[5-cyclopropyl-4-(oxetan-3-ylmethoxy)pyridin-2-yl]-1,2,4-oxadiazole] | 11.8 nM | > 10000 nM
CC(C)c1noc(-c2cc(OCC(F)(F)F)c(C3CC3)cn2)n1 [Example 42, 5-[5-cyclopropyl-4-(2,2,2-trifluoroethoxy)pyridin-2-yl]-3-propan-2-yl-1,2,4-oxadiazole] | 2.3 nM | > 10000 nM
CC(C)(C)c1nc(-c2cc(Oc3ccc(F)cc3)c(C3(F)COC3)cn2)no1 [Example 110, 5-tert-butyl-3-[5-(3-fluorooxetan-3-yl)-4-(4-fluorophenoxy)pyridin-2-yl]-1,2,4-oxadiazole] | 103 nM | > 10000 nM
CC(C)(C)c1nc(-c2cc(OCC3CCCO3)c(C3CC3)cn2)no1 (stereo not shown) [Example 56, 5-tert-butyl-3-[5-cyclopropyl-4-(oxolan-2-ylmethoxy)pyridin-2-yl]-1,2,4-oxadiazole] | 44.7 nM | > 10000 nM
